Reference: PubChem BioAssay (NCI)
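Five concentrations, 48 hours, 96-well plates. At the GI50, growth is halved. The concentration for full growth arrest is given as TGI.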

Columns and labels:
Test in all cases: NCI tumour cell line growth inhibition, 48 h
[1] = system: RXF 393 renal
[2] = system: OVCAR-4 ovarian
[3] = system: HT29 colon
[4] = system: K-562 leukemia
[5] = system: SNB-75 CNS
[6] = system: OVCAR-8 ovarian
[7] = system: HS 578T breast
[8] = system: SK-MEL-28 melanoma
[9] = system: LOX IMVI melanoma
[10] = system: UACC-62 melanoma
[11] = system: MALME-3M melanoma
[12] = system: 786-0 renal
[13] = system: IGROV1 ovarian
[14] = system: MDA-MB-231 breast
[15] = system: U251 CNS
[16] = system: KM12 colon
[17] = system: CAKI-1 renal
[18] = system: NCI-H522 lung
[19] = system: OVCAR-3 ovarian
[20] = system: BT-549 breast
[21] = system: SK-MEL-5 melanoma
[22] = system: HCT-15 colon
[23] = system: HOP-62 NSCLC
[24] = system: ACHN renal
[25] = system: SN12C renal
[26] = system: MCF7 breast
[27] = system: SF-295 CNS
[28] = system: NCI-H226 lung

O=S(=O)(NCCCNc1nccc(-c2[nH]c(-c3ccccc3)nc2-c2ccc(F)c(O)c2)n1)c1ccc(C(F)(F)F)cc1
TGI [1]: 5 µM | GI50 [2]: 3.62 µM | TGI [2]: 24.1 µM | GI50 [3]: 2.96 µM | GI50 [4]: 2.87 µM | TGI [4]: > 100 µM | GI50 [5]: 2.22 µM | TGI [5]: 7.79 µM | GI50 [6]: 3.37 µM | TGI [6]: > 100 µM | GI50 [7]: 2.71 µM | TGI [7]: 7.12 µM | GI50 [8]: 1.61 µM | TGI [8]: 4.46 µM | GI50 [9]: 2.01 µM | TGI [9]: 4.78 µM | GI50 [10]: 1.29 µM | TGI [10]: 2.82 µM | GI50 [11]: 1.21 µM | TGI [11]: 3.47 µM | GI50 [12]: 3.52 µM | TGI [12]: 11.7 µM | GI50 [13]: 2.41 µM | TGI [13]: 6.72 µM | GI50 [14]: 2.75 µM | TGI [14]: 8.44 µM | GI50 [15]: 3.15 µM | TGI [15]: 9.85 µM | GI50 [16]: 3.05 µM | TGI [16]: 9.09 µM | GI50 [17]: 2.57 µM | TGI [17]: 13.8 µM | GI50 [18]: 2.42 µM | TGI [18]: 7.12 µM | GI50 [19]: 2.62 µM | TGI [19]: 5.49 µM | GI50 [20]: 2.53 µM | TGI [20]: 7.12 µM | GI50 [21]: 1.69 µM | TGI [21]: 3.23 µM | GI50 [22]: 3.04 µM | TGI [22]: 9.62 µM | GI50 [23]: 2.89 µM | TGI [23]: 10.9 µM | GI50 [24]: 2.85 µM | TGI [24]: 8.78 µM | GI50 [25]: 2.59 µM | TGI [25]: 7.62 µM | GI50 [26]: 2.82 µM | TGI [26]: 10.4 µM | GI50 [27]: 1.88 µM | TGI [27]: 3.58 µM | GI50 [28]: 3.85 µM | TGI [28]: 16.7 µM
